The target of experiment [1] is T1, Heme-binding protein A (Glaesserella parasuis, UniProt B8F653).
T1 sequence (B8F653 whole entry): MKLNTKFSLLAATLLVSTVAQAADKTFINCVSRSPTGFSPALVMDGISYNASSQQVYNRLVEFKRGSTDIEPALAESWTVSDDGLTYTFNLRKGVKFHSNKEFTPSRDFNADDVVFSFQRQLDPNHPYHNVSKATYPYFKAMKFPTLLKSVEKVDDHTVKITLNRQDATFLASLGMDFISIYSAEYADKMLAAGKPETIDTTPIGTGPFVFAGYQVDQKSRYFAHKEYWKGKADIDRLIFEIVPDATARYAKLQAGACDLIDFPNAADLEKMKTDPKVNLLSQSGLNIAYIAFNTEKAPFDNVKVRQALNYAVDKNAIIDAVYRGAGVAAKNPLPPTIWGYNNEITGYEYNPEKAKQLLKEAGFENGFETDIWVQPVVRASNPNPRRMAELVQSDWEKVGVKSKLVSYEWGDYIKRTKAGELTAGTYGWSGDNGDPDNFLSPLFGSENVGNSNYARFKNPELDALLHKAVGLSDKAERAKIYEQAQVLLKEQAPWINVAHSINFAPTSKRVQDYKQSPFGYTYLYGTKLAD
Description: Isothermal Titration Calorimetry (ITC). As to conditions: pH 7.4; 37 °C. On the procedure:
(§1) Purified test proteins were dialyzed overnight against 10 mM Tris-HCl, pH 7.4, at 4°C. The resultant dialysis buffer was then used to dissolve the test compounds. Titrations were always preceded by an initial injection of 3 μL and were carried out using 10-μL injections applied 300 s apart. The sample was stirred at a speed of 400 rpm throughout.

The target in experiment [2] is Heme-binding protein A (Actinobacillus pleuropneumoniae serovar 9 str. CVJ13261, UniProt A3N3U8). The experiment is described as follows: Isothermal Titration Calorimetry (ITC). The following applies: pH 7.4; 37 °C. The protocol: as §1
Chain of Heme-binding protein A (Actinobacillus pleuropneumoniae serovar 9 str. CVJ13261, UniProt A3N3U8) (A3N3U8 whole entry): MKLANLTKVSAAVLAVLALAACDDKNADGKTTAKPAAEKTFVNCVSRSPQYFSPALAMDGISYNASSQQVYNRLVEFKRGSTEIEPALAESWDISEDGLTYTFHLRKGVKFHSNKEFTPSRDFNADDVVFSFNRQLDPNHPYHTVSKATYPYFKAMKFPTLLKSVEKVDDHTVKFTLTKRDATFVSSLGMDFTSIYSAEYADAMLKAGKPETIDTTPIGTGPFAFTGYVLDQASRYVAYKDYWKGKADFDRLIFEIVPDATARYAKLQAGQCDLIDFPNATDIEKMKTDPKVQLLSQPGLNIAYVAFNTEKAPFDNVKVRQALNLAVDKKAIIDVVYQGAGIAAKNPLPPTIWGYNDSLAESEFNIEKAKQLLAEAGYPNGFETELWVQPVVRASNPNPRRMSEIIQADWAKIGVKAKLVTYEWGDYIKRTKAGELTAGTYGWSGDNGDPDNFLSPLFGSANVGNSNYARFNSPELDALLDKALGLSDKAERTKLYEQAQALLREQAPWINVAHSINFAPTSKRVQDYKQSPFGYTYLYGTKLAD

With `N[C@@H](CCC(=O)N[C@@H](CS)C(=O)NCC(=O)O)C(=O)O` [GLUTATHIONE], binding on Heme-binding protein A [1] was put at a Kd of 1900 nM.

Take `CSC[C@H](NC(=O)CC[C@H](N)C(=O)O)C(=O)NCC(=O)O` [S-methylglutathione]: the Kd at Heme-binding protein A [1] came to 900 nM; at Heme-binding protein A [2], 1170 nM.

(Values after BindingDB's records for doi:10.1186/1471-2091-12-59 (Ghent University, 2011).)
